Test results as given in patent US20070207975A1, “Materials and methods for treating and preventing Her-2/neu overexpressing, FAS-elevated cancer cells” (EVANSTON NORTHWESTERN HEALTHCARE, priority 2006, published 2007).

Assays:
[1] = test system: phospho-MAPK and phospho-Ser^473 AKT; experiment: Western blot of phospho-MAPK and phospho-AKT; type: cell-based, human; settings: BT-474; 48 hours; OA 5 μM, trastuzumab 10 μg/ml in combination
Source text: Densitometric values of protein bands were quantified using Scion Imaging Software (Scion Corp., Frederick, Md.).

p185^Her-2/neu = experiment: In situ immunofluorescent staining of p185Her-2/neu; type: cell-based, human; settings: BT-474; 48 hours
Source text: FIG. 2. Exogenous supplementation with OA synergistically enhances trastuzumab-induced down-regulation of p185^Her-2/neu. […] The amount of cell surface-associated p185^Her-2/neu was quantified by flow cytometric analyses using a specific antibody against the extracellular domain of p185^Her-2/neu (Ab-5), as described herein. The mean fluorescence signal±SD (n=3) was quantified using the geo mean fluorescence (GM) parameter provided with the Cell Quest Software (Becton Dickinson). […] After labeling, cells were washed thoroughly, and localization of p185^Her-2/neu was detected by indirect immunofluorescence by incubating with FITC-conjugated anti-mouse IgG. After counterstaining with DAPI, cells were examined and photographed using a Zeiss fluorescent microscope equipped with a built-in camera. […] Similar results were obtained in three independent experiments. […] Similar results were obtained in three independent experiments. Cells were seeded at a density of 1×10^4 cells/well in a four-well chamber slide (Nalge Nunc International, Rochester, N.Y.). […] Indirect immunofluorescence was recorded on a Zeiss microscope. […] Thereafter, p185^Her-2/neu cellular localization was assessed using the anti-erbB2, Ab-3 mouse monoclonal antibody (Oncogene Research Products), which is directed against the C-terminal 14 amino acids of p185^Her-2/neu. […]

CCCCCCCCC=CCCCCCCCC(=O)O [OA, 9-octadecenoic acid]
active MAPK and active AKT (phospho-MAPK, phospho-Ser^473 AKT) [1]: inhibited active MAPK and active AKT | p185^Her-2/neu-associated membrane (cell surface) staining (p185^Her-2/neu): markedly reduced
